In US10894051B2, “Method of treating metastatic cancer in a subject” (City University of Hong Kong, priority 2017, dated 2021):

Assays:
cancer cell = test: colony formation from single cancer cell; format: cell-based; conditions: 2 μM, 5 μM and 10 μM
Procedure: (§1) HeLa cells, A549 cells, CNE-1 cells and human liver cancer stem cells (hLCSCs) were incubated and treated with vacuolin-1 at different concentrations, namely 2 μM, 5 μM and 10 μM.

A549 cells = test: trans-well migration assay; format: cell-based; conditions: 2 μM, 5 μM and 10 μM
Procedure: as §1

CNE-1 cells = test: trans-well migration assay; format: cell-based; conditions: 2 μM, 5 μM and 10 μM
Procedure: as §1

HeLa cells = test: trans-well migration assay; format: cell-based; conditions: 2 μM, 5 μM and 10 μM
Procedure: as §1

[1] = test system: human liver cancer stem cells (hLCSCs); test: trans-well migration assay; format: cell-based; conditions: 2 μM, 5 μM and 10 μM
Procedure: as §1

hLCSCs [2] = test: matrigel invasion assay; format: cell-based, human
Procedure: as §1

hLCSCs [3] = test: tumor sphere formation; format: cell-based, human
focal adhesion (FA) = test: FA disassembly after nocodazole release (Vinculin staining); format: cell-based
Procedure: (§2) Autophagy or endosomal trafficking contributes to the migration and invasion of tumor cells by changing the microtubule dynamics, or presentation of surface proteins, or secretion of extracellular matrix (ECM) proteins. Also, focal adhesion (FA) dynamics is a key process for cell migration. In this regard, the effects of vacuolin-1 on the spatio-temporal regulation of FA dynamics were assessed. Phospho-Y397 FAK immunoblot was used to assess the effects of vacuolin-1 on phosphorylation and dephosphorylation dynamics of FAK. Cells were also treated with nocodazole, followed by nocodazole removal and vacuolin-1 incubation, stained with antibodies against Vinculin and Phalloidiin for FA and stress fiber, respectively.
With reference to FIGS. 1E and 1F, cells were treated with nocodazole so as to depolymerize microtubules for inducing and stabilizing FA formation, showing by the puncta staining pattern of Vinculin (green colour), whereas removal of nocodazole led to microtubule regrowth resulting in decreasing the number of FA in a time-dependent manner until the reformation of FAs. […] Focal adhesion kinase (FAK) phosphorylation and dephosphorylation on Y397 is another readout of FA dynamics.

[4] = test system: Focal adhesion kinase (FAK); test: phospho-Y397 FAK immunoblot; format: cell-based; conditions: phosphor-Y397 FAK immunoblot
Procedure: as §2
Consistently, with reference to FIG. 1D, vacuolin-1 treatment of cells abolished phosphorylation and dephosphorylation dynamics of FAK as assessed by the phosphor-Y397 FAK immunoblot analysis.

cancer cells = test: cytotoxicity in vitro; format: cell-based
LCSCs = test: xenograft tumor-seeding of vacuolin-1 pretreated LCSCs; format: in vivo, nude mice; conditions: for tumor incidence / tumor volume: pretreated 10 μM 48 hours, after 4 weeks
Procedure: Nude mice were divided into 4 control groups and 4 treatment groups, each group having 6 nude mice. With reference to FIG. 2A, LCSCs were pretreated with DMSO or 10 μM vacuolin-1 for 48 hours before injecting to nude mice via subcutaneous injection. After 4 weeks, the tumor incidence in mice was measured to determine whether the pretreatment of vacuolin-1 can inhibit the invasion cancer cells in mice.

tfLC3B-expressing LCSCs = test: metastasis of tail vein injected LCSCs; format: in vivo; conditions: 2.5 mg/kg IP 3 times per week; 8 weeks; nude mice
Procedure: With reference to FIG. 3A, briefly, 5×10^5 tfLC3B-expressing LCSCs were injected via tail vein into nude mice. 24 hours after the tail vein injection, intraperitoneal (IP) injection of vacuolin-1 (2.5 mg/kg) were conducted 3 times per week. After 8 weeks, all mice were sacrificed. Lungs were excised, and fixed in the 4% paraformaldehyde in PBS. Metastatic nodules were counted in the excised lungs and hemotoxylin/eosin (H&E) were then performed.

[5] = test system: human breast cancer cells CA1a; test: metastasis of tail vein injected CA1a cells; format: in vivo; conditions: 2.5 mg/kg IP 3 times per week; 8 weeks; nude mice
Procedure: Similarly, the anti-metastasis effects of vacuolin-1 in human breast cancer cells CA1a in xenograft mouse models were evaluated. With reference to FIG. 4A, briefly, 5×10^5 Fluc-mCherry-expressing CA1a cells were injected by tail vein into nude mice. 24 hours after the tail vein injection, IP injections of vacuolin-1 (2.5 mg/kg) and DMSO-containing PBS were conducted 3 times per week. The mice where imaged by the Cri Maestro 2 weekly to assess the tumor progression. After 8 weeks, all mice were sacrificed.

[6] = test system: mouse breast carcinoma 4TO7; test: metastasis of tail vein injected 4TO7 cells; format: in vivo, normal BALBc mice; conditions: 2.5 mg/kg daily IP; BALBc mice
Procedure: To exclude the effects of immunodeficiency (nude mice) on the drug effects, another metastasis tumor model was established by tail vein injection of mouse breast carcinoma 4TO7 into normal BALBc mice followed by daily IP injections of vacuolin-1 (2.5 mg/kg) 24 hour later, as illustrated in FIG. 5A.

[7] = test system: Fluc-mCherry-expressing 4TO7 cells; test: metastasis of tail vein injected Fluc-mCherry 4TO7 cells; format: in vivo; conditions: tail vein injection; 2.5 mg/kg IP; 2 weeks; normal mice
Procedure: Since 4TO7 cells are more metastatic than LCSCs, Fluc-mCherry-expressing 4TO7 cells were injected into normal mice via tail vein injection followed by IP injections of vacuolin-1 (2.5 mg/kg) 24 hour later, as illustrated in FIG. 6A. The mice were imaged by the Cri Maestro 2 weekly to assess the tumor progression. Mice were sacrificed after 2 weeks, and the number of tumor colonies in lung was counted.

[8] = test system: Fluc-mCherry-expressing 4TO7 cells; test: metastasis of fat pad injected Fluc-mCherry 4TO7 cells; format: in vivo; conditions: fat pad injection; 2.5 mg/kg IP; 4 weeks; normal female mice
Procedure: The anti-metastasis effects of vacuolin-1 in another metastasis model have also been evaluated. With reference to FIG. 7A, Fluc-mCherry-expressing 4TO7 cells were injected into the fat pad of normal female mice followed by IP injections of vacuolin-1 (2.5 mg/kg) 24 hour later. The mice were imaged by the Cri Maestro 2 weekly to assess the tumor progression. Mice were sacrificed after 4 weeks, and the number of tumor colonies in lung was counted.

[9] = acute toxicity via oral route; format: in vivo; conditions: single dose 250 mg/kg oral
Procedure: In particular, vacuolin-1 was administered at a single dose of 250 mg/kg to young adult male and female mice via oral route, and DMSO-containing PBS was administered to another set of male and female mice via oral route as a control group. […] During the 2 weeks, the body weight was also measured. After the 2 weeks, organs were excised for histopathology evaluation.
Referring to FIG. 8B, all tissues or organs in vacuolin-1 treated mice were normal in histological point of view as compared to control groups.

sub-chronic toxicity = format: in vivo; conditions: 5 mg/kg daily intraperitoneal; 3 months; mice
Procedure: As for the sub-chronic toxicity of vacuolin-1, 5 mg/kg vacuolin-1 was administered daily to young adult male and female mice via intraperitoneal route for 3 months, and DMSO-containing PBS was administered to another set of male and female mice as a control group. The body weight of the mice was determined every week. […] After the 3 months, organs were excised for histopathology evaluation.

[10] = 1*10^4 LCSCs injected subcutaneously
[11] = 1*10^5 LCSCs injected subcutaneously
[12] = 1*10^6 LCSCs injected subcutaneously

**Q.** With `Ic1cccc(/C=N/Nc2nc(N3CCOCC3)nc(N(c3ccccc3)c3ccccc3)n2)c1` [vacuolin-1] as the molecule, how does the “size and number of colonies generated from single cancer cell” value (cancer cell) read?
**A.** dramatically reduced

**Q.** What about the cell migration (A549 cells) of the same molecule?
**A.** significantly inhibited

**Q.** And the cell migration (CNE-1 cells)?
**A.** significantly inhibited

**Q.** What about the cell migration (HeLa cells) of the same molecule?
**A.** significantly inhibited

**Q.** What about the cell migration [1] of the same molecule?
**A.** significantly inhibited

**Q.** And the cell invasion (hLCSCs [2])?
**A.** significantly inhibited

**Q.** And the tumor sphere formation (hLCSCs [3])?
**A.** significantly inhibited

**Q.** And the FA disassembly (focal adhesion (FA))?
**A.** markedly inhibited

**Q.** What about the “phosphorylation and dephosphorylation dynamics of FAK” value [4] of the same molecule?
**A.** abolished

**Q.** And the cytotoxicity (cancer cells)?
**A.** no cytotoxicity

**Q.** And the tumor incidence (LCSCs; 1*10^3 LCSCs injected subcutaneously)?
**A.** 0/6

**Q.** And the tumor incidence (LCSCs; [10])?
**A.** 2/6

**Q.** What about the tumor volume (LCSCs; [10]) of the same molecule?
**A.** (1069 mm^3)

**Q.** What about the tumor incidence (LCSCs; [11]) of the same molecule?
**A.** 2/6

**Q.** And the tumor volume (LCSCs; [11])?
**A.** (1184 mm^3)

**Q.** What about the tumor incidence (LCSCs; [12]) of the same molecule?
**A.** 5/6

**Q.** What about the tumor volume (LCSCs; [12]) of the same molecule?
**A.** (1521 mm^3)

**Q.** What about the “tumor-seeding ability of LCSC cells” value (LCSCs; vacuolin-1 pretreatment, nude mice) of the same molecule?
**A.** markedly inhibited

**Q.** What about the “metastasis of LCSCs (tumor nodules in lung, lung histology)” value (tfLC3B-expressing LCSCs) of the same molecule?
**A.** significantly inhibited

**Q.** And the “metastasis of CA1a cells” value [5]?
**A.** significantly inhibited

**Q.** And the “anti-metastatic effects on 4TO7 cells (tumor nodules in lungs, lung histology)” value [6]?
**A.** striking anti-metastatic effects

**Q.** What about the “metastasis of 4TO7 cells” value [7] of the same molecule?
**A.** markedly inhibited

**Q.** And the “metastasis of 4TO7 cells” value [8]?
**A.** markedly inhibited

**Q.** And the behavior abnormality ([9]; 2 weeks)?
**A.** no signs of behavior abnormality

**Q.** And the mouse weight gain ([9]; 2 weeks)?
**A.** no effects

**Q.** And the “histology of tissues or organs” value ([9]; after 2 weeks)?
**A.** normal

**Q.** And the acute toxicity ([9]; mice)?
**A.** no acute toxicity

**Q.** What about the sub-chronic toxicity (sub-chronic toxicity) of the same molecule?
**A.** no sub-chronic toxicity
